This note sets out measurements from US20250026848A1, “IDENTIFICATION OF PATHOGENIC IMMUNE CELL SUBSETS IN CHECKPOINT INHIBITOR-INDUCED MYOCARDITIS” (U.S. GOVERNMENT AS REPRESENTED BY THE DEPARTMENT OF …, priority 2021, published 2025).

Molecules are shown by their SMILES.

For the experiment, the system named is ICI myocarditis. Nature of the experiment: Longitudinal follow-up of one ICI myocarditis patient (MCE1) treated with glucocorticoids: cardiac biomarker troponin I. The class given is in vivo, human. The settings on record: one patient with MRI-confirmed ICI myocarditis; 60 mg/day from first day of diagnosis, four-week steroid taper. The method, then: In order to evaluate the time evolution of clonally-expanded T-cells in ICI myocarditis, we longitudinally analyzed PBMCs from one patient with MRI-confirmed myocarditis at early (t=0 days) and late (t=65 days) timepoints (FIG. 5A). This patient received glucocorticoids (60 mg/day of prednisone) for treatment of their myocarditis on the first day of their diagnosis (after blood collection) and underwent a successful four-week steroid taper with resolution of their cardiac biomarkers (troponin I, measured in ng/ml) by day 25. […] Due to the availability of early and late myocarditis blood samples, our study also provides new insight into the time-course of cellular and molecular changes that occur throughout the onset and resolution of ICI myocarditis. ICI myocarditis has a notoriously unpredictable time course and can occur with a median onset of 17-34 days after initiation of ICI therapy, although cases have been identified anywhere from 1 to 240 days from start of therapy (34,38-40). In our patient, we were able to collect blood at the time of diagnosis of the positive troponin I of 10 ng/ml (t=0) and track to day 65 after a full four-week course of glucocorticoids and resolution of clinical signs of myocarditis. […]

As to `C[C@]12C=CC(=O)C=C1CC[C@@H]1[C@@H]2C(=O)C[C@@]2(C)[C@H]1CC[C@]2(O)C(=O)CO` [prednisone], the “resolution of cardiac biomarkers (troponin I)” value was ≤ 25 days.
